Assays:
common dogwood diseases = assay: Drench experiments on flowering dogwoods; assay type: in vivo; conditions: soil drench; compared with fluoxastrobin (personal experience)
Description: Evidence of how far you have to stray from my preferred formulation and application plan before the invention stops being useful (in other words, what are the boundaries of this invention). Not all strobilurins have xylem mobility only azoxystrobin and fluoxastrobin show this ability.

[1] = Direct trunk injection, phytotoxicity; assay type: in vivo; conditions: movement into xylem vessels
Description: For direct trunk injections, the azoxystrobin fungicide is compatible with the physiology of the plants. […] Other formulations such as fluoxastrobin are not advised for direct trunk injections.

Structure (SMILES): CO/C=C(/C(=O)OC)c1ccccc1Oc1cc(Oc2ccccc2C#N)ncn1 [azoxystrobin]
- control of common dogwood diseases (common dogwood diseases): excellent season long control
- phytotoxicity [1]: without phytotoxicity

— US20140038950A1, “PLANT TREATMENT” (priority 2012, published 2014)
